Results published in ChEMBL document CHEMBL5150024, “Design and synthesis of TPP+-Mitomycin C conjugate with reduced toxicity” (Bioorg Med Chem Lett, 2022).
Each block holds one compound with its values, some of them ahead of it. The source made the active and inactive calls. The calls are words filed in the database; no cut-off is given here.

What was measured:
[1] = system: PC-3; assay: Antiproliferative activity against human PC-3 cells assessed as inhibition of cell growth incubated for 48 hrs by MTT assay; assay type: functional, cell-based; conditions: PC-3, 48 h
[2] = system: A549; assay: Antiproliferative activity against human A549 cells assessed as inhibition of cell growth incubated for 48 hrs by MTT assay; assay type: functional, cell-based; conditions: A549, 48 h
[3] = system: A-375; assay: Antiproliferative activity against human A-375 cells assessed as inhibition of cell growth incubated for 48 hrs by MTT assay; assay type: functional, cell-based; conditions: A-375, 48 h
[4] = system: MDA-MB-231; assay: Antiproliferative activity against human MDA-MB-231 cells assessed as inhibition of cell growth incubated for 48 hrs by MTT assay; assay type: functional, cell-based; conditions: MDA-MB-231, 48 h
[5] = system: HCT-116; assay: Antiproliferative activity against human HCT-116 cells assessed as inhibition of cell growth incubated for 48 hrs by MTT assay; assay type: functional, cell-based; conditions: HCT-116, 48 h
[6] = system: MCF7; assay: Antiproliferative activity against human MCF7 cells assessed as inhibition of cell growth incubated for 48 hrs by MTT assay; assay type: functional, cell-based; conditions: MCF7, 48 h
[7] = Cytotoxicity against HUVEC assessed as inhibition of cell growth incubated for 48 hrs by MTT assay; assay type: toxicity, cell-based; conditions: human
[8] = Cytotoxicity against human L02 cells assessed as inhibition of cell growth incubated for 48 hrs by MTT assay; assay type: toxicity, cell-based
[9] = system: A549; assay: Induction of cell cycle arrest in human A549 cells assessed as G1 phase cells at 4 uM incubated for 24 hrs by flow cytometric analysis (reference value: 60.75 %); assay type: functional
[10] = system: A549; assay: Inhibition of cell invasion in human A549 cells at 2 to 4 uM incubated for 24 hrs by transwell invasion assay; assay type: functional, cell-based; conditions: dose 2-4 µM
[11] = system: A549; assay: Induction of cell cycle arrest in human A549 cells assessed as S phase cells at 4 uM incubated for 24 hrs by flow cytometric analysis (reference value: 23.49 %); assay type: functional
[12] = system: A549; assay: Induction of apoptosis in human A549 cells assessed as total apoptotic cells at 1 uM incubated for 48 hrs by Annexin V-FITC/PI staining based flow cytometric analysis relative to control; assay type: functional
[13] = system: A549; assay: Antiproliferative activity against human A549 cells assessed as inhibition of cell growth preincubated with FCCP for 1 hrs followed by compound addition and measured after 48 hrs by MTT assay; assay type: functional, cell-based
[14] = Toxicity in mouse assessed as effect on liver pathology at 10 to 20 mg/kg, ip administered for 7 days and measured every 2 days; assay type: organism-based; conditions: in vivo, 168 h, dose 10-20 mg/kg, time 7 day
[15] = Toxicity in mouse assessed as clinical signs at 10 to 20 mg/kg, ip administered for 7 days and measured every 2 days; assay type: organism-based; conditions: in vivo, 168 h, dose 10-20 mg/kg, time 7 day
[16] = system: A549; assay: Induction of apoptosis in human A549 cells assessed as total apoptotic cells at 4 uM incubated for 48 hrs by Annexin V-FITC/PI staining based flow cytometric analysis relative to control; assay type: functional
[17] = system: A549; assay: Induction of mitochondrial membrane depolarization in human A549 cells assessed as increase in JC-1 monomer ratio at 2 to 8 uM incubated for 24 hrs by JC-1 staining based flow cytometric analysis; assay type: functional, cell-based; conditions: dose 2-8 µM
[18] = system: A549; assay: Induction of cell cycle arrest in human A549 cells assessed as G2 phase cells at 2 uM incubated for 24 hrs by flow cytometric analysis (reference value: 15.75 %); assay type: functional
[19] = system: A549; assay: Induction of mitochondrial membrane depolarization in human A549 cells assessed as loss of red fluorescence at 2 to 8 uM incubated for 4 hrs by TMRM staining based fluorescence assay; assay type: functional, cell-based; conditions: dose 2-8 µM
[20] = Toxicity in mouse assessed as effect on kidney pathology at 10 to 20 mg/kg, ip administered for 7 days and measured every 2 days; assay type: organism-based; conditions: in vivo, 168 h, dose 10-20 mg/kg, time 7 day
[21] = system: A549; assay: Induction of apoptosis in human A549 cells assessed as total apoptotic cells at 2 uM incubated for 48 hrs by Annexin V-FITC/PI staining based flow cytometric analysis relative to control; assay type: functional
[22] = Toxicity in mouse assessed as effect on spleen pathology at 10 to 20 mg/kg, ip administered for 7 days and measured every 2 days; assay type: organism-based; conditions: in vivo, 168 h, dose 10-20 mg/kg, time 7 day
[23] = Toxicity in mouse assessed as effect on heart pathology at 10 to 20 mg/kg, ip administered for 7 days and measured every 2 days; assay type: organism-based; conditions: in vivo, 168 h, dose 10-20 mg/kg, time 7 day
[24] = system: A549; assay: Induction of cell cycle arrest in human A549 cells assessed as G2 phase cells at 4 uM incubated for 24 hrs by flow cytometric analysis (reference value: 15.75 %); assay type: functional
[25] = Toxicity in mouse assessed as effect on lung pathology at 10 to 20 mg/kg, ip administered for 7 days and measured every 2 days; assay type: organism-based; conditions: in vivo, 168 h, dose 10-20 mg/kg, time 7 day
[26] = system: A549; assay: Induction of apoptosis in human A549 cells at 4 uM by Annexin V-FITC/PI staining based flow cytometric analysis; assay type: functional, cell-based; conditions: time 12-48 hrs, TDE = time-dependent effect
[27] = system: A549; assay: Induction of cell cycle arrest in human A549 cells assessed as G2 phase cells at 1 uM incubated for 24 hrs by flow cytometric analysis (reference value: 15.75 %); assay type: functional
[28] = system: A549; assay: Inhibition of cell migration in human A549 cells at 2 uM incubated for 48 hrs by wound healing assay; assay type: functional, cell-based
[29] = system: A549; assay: Induction of mitochondrial membrane depolarization in human A549 cells assessed as increase in green fluorescence by measuring JC-1 monomer at 2 to 8 uM incubated for 4 hrs by JC-1 dye based assay; assay type: functional, cell-based; conditions: dose 2-8 µM
[30] = Toxicity in mouse assessed as death at 10 to 20 mg/kg, ip administered for 7 days and measured every 2 days; assay type: organism-based; conditions: in vivo, 168 h, dose 10-20 mg/kg, time 7 day
[31] = system: A549; assay: Induction of cell cycle arrest in human A549 cells assessed as S phase cells at 2 uM incubated for 24 hrs by flow cytometric analysis (reference value: 23.49 %); assay type: functional
[32] = Toxicity in mouse assessed as effect on body weight at 20 mg/kg, ip administered for 7 days and measured every 2 days; assay type: organism-based; conditions: in vivo, 168 h, time 7 day
[33] = system: A549; assay: Induction of cell cycle arrest in human A549 cells assessed as G1 phase cells at 1 uM incubated for 24 hrs by flow cytometric analysis (reference value: 60.75 %); assay type: functional
[34] = system: A549; assay: Induction of cell cycle arrest in human A549 cells assessed as S phase cells at 1 uM incubated for 24 hrs by flow cytometric analysis (reference value: 23.49 %); assay type: functional
[35] = system: A549; assay: Induction of cell cycle arrest in human A549 cells assessed as G1 phase cells at 2 uM incubated for 24 hrs by flow cytometric analysis (reference value: 60.75 %); assay type: functional

Structure (SMILES): CO[C@@]12[C@H](COC(N)=O)C3=C(C(=O)C(C)=C(N)C3=O)N1C[C@H]1[C@@H]2N1CCCCCCCCCC[P+](c1ccccc1)(c1ccccc1)c1ccccc1 (some centres undefined)
IC50 [1]: 4.71 µM | IC50 [2]: 2.82 µM | IC50 [3]: 1.96 µM | IC50 [4]: 1.95 µM | IC50 [5]: 1.96 µM | IC50 [6]: 3.17 µM | IC50 at 48 h [7]: 10 µM | IC50 at 48 h [8]: > 5 µM

IC50 [1]: 0.97 µM | IC50 [2]: 0.67 µM | IC50 [3]: 0.64 µM | IC50 [4]: 2.63 µM | IC50 [5]: 0.75 µM | IC50 [6]: 4.56 µM
Structure (SMILES): CO[C@@]12[C@H](COC(N)=O)C3=C(C(=O)C(C)=C(N)C3=O)N1C[C@H]1[C@@H]2N1C(=O)CCCCCCCCCCC[P+](c1ccccc1)(c1ccccc1)c1ccccc1
IC50 at 48 h [7]: > 5 µM | IC50 at 48 h [8]: > 2.5 µM

Structure (SMILES): CO[C@@]12[C@H](COC(N)=O)C3=C(C(=O)C(C)=C(N)C3=O)N1C[C@H]1[C@@H]2N1C(=O)CCCCCCCCC[P+](c1ccccc1)(c1ccccc1)c1ccccc1.[Br-]
IC50 [1]: 6.05 µM | Activity [9]: 0.72% | inhibition [10]: Active | Activity [11]: 84.94% | Activity [12]: 18% | IC50 [13]: 11.3 µM | Activity [14]: Non-Toxic | Activity [15]: Non-Toxic | Activity [16]: 24.9% | Activity [17]: Active | IC50 [2]: 1.09 µM | IC50 [3]: 1.46 µM | Activity [18]: 44.68% | IC50 [4]: 3.11 µM | Activity [19]: Active | IC50 [5]: 1.22 µM | Activity [20]: Non-Toxic | Activity [21]: 20.2% | Activity [22]: Non-Toxic | Activity [23]: Non-Toxic | Activity [24]: 14.35% | Activity [25]: Non-Toxic | Activity [26]: Tde | Activity [27]: 34.21% | inhibition [28]: Active | IC50 [6]: 5.45 µM | Activity [29]: Active | IC50 at 48 h [7]: > 20 µM | IC50 at 48 h [8]: > 20 µM | Activity [30]: Non-Toxic | Activity [31]: 49.53% | Activity [32]: Non-Toxic | Activity [33]: 14.87% | Activity [34]: 50.92% | Activity [35]: 5.79%

IC50 [1]: 11.9 µM | IC50 [2]: 1.31 µM | IC50 [3]: 1.86 µM | IC50 [4]: 7.64 µM | IC50 [5]: 1.23 µM | IC50 [6]: 6.59 µM
Structure (SMILES): CO[C@@]12[C@H](COC(N)=O)C3=C(C(=O)C(C)=C(N)C3=O)N1C[C@H]1[C@@H]2N1C(=O)CCCCCCC[P+](c1ccccc1)(c1ccccc1)c1ccccc1
IC50 at 48 h [7]: > 20 µM | IC50 at 48 h [8]: > 20 µM
